In PubChem BioAssay AID2060489 (Molecular Pharmacology Branch, DTP, NCI, 2025):

Test system: 922993-354-T-J3-PDC complex spheroids, viability
Experiment: Anticancer human tumor 922993-354-T-J3-PDC patient-derived endometrial carcinoma cell line growth inhibition [GQUAD]
Conditions: for IC50: curve of first compound; for viability, T/C: stronger effect = lower value
Procedure, shortened: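 Multi-cell-type spheroids of tumor cells with HUVEC and mesenchymal stem cells, treated with drug combinations. Concentrations descend in half-log steps from near clinical Cmax, or from 10 microM where Cmax is unknown; viability read-out.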

[1] = second compound 0.0316 µM, first compound 0.0316 µM
[2] = second compound 0.0316 µM, first compound 0.1 µM
[3] = second compound 0.0316 µM, first compound 0.316 µM
[4] = second compound 0.0316 µM, first compound 1 µM
[5] = second compound 0.0316 µM, first compound 3.16 µM
[6] = second compound 0.0316 µM, first compound 10 µM
[7] = second compound 0.1 µM, first compound 0.0316 µM
[8] = second compound 0.1 µM, first compound 0.1 µM
[9] = second compound 0.1 µM, first compound 0.316 µM
[10] = second compound 0.1 µM, first compound 1 µM
[11] = second compound 0.1 µM, first compound 3.16 µM
[12] = second compound 0.1 µM, first compound 10 µM
[13] = second compound 0.316 µM, first compound 0.0316 µM
[14] = second compound 0.316 µM, first compound 0.1 µM
[15] = second compound 0.316 µM, first compound 0.316 µM
[16] = second compound 0.316 µM, first compound 1 µM
[17] = second compound 0.316 µM, first compound 3.16 µM
[18] = second compound 0.316 µM, first compound 10 µM
[19] = second compound 1 µM, first compound 0.0316 µM
[20] = second compound 1 µM, first compound 0.1 µM
[21] = second compound 1 µM, first compound 0.316 µM
[22] = second compound 1 µM, first compound 1 µM
[23] = second compound 1 µM, first compound 3.16 µM
[24] = second compound 1 µM, first compound 10 µM
[25] = second compound 3.16 µM, first compound 0.0316 µM
[26] = second compound 3.16 µM, first compound 0.1 µM
[27] = second compound 3.16 µM, first compound 0.316 µM
[28] = second compound 3.16 µM, first compound 1 µM
[29] = second compound 3.16 µM, first compound 3.16 µM
[30] = second compound 3.16 µM, first compound 10 µM
[31] = second compound 10 µM, first compound 0.0316 µM
[32] = second compound 10 µM, first compound 0.1 µM
[33] = second compound 10 µM, first compound 0.316 µM
[34] = second compound 10 µM, first compound 1 µM
[35] = second compound 10 µM, first compound 3.16 µM
[36] = second compound 10 µM, first compound 10 µM
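Also: spheroids exposed to compounds for seven days.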
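For viability, T/C in this document: 100% = DMSO vehicle control viability.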

With `COc1ncnc(C2CC2)c1-c1ncc2cnn(Cc3ccc(-c4nc(C(F)(F)F)cn4C(C)C)cc3)c2n1` + Cc1[nH]c2ccc(F)cc2c1-c1nc2c3cccnc3c3ncccc3c2[nH]1 the IC50 (second compound 0.0316 µM) was over 10 µM, the IC50 (second compound 0.1 µM) was over 10 µM and the IC50 (second compound 0.316 µM) was over 10 µM. It also gave an IC50 (second compound 1 µM) of over 10 µM, an IC50 (second compound 3.16 µM) of over 10 µM and an IC50 (second compound 10 µM) of over 10 µM. The viability, T/C [1] was 94.6%, the viability, T/C [2] was 87.3% and the viability, T/C [3] was 80.7%. The viability, T/C [4] was 82.3%, the viability, T/C [5] was 90.7% and the viability, T/C [6] was 88.8%. For the same compound, the viability, T/C [7] was 123%, the viability, T/C [8] was 99.2% and the viability, T/C [9] was 90.1%. The viability, T/C [10] was 70.1%, the viability, T/C [11] was 96.2% and the viability, T/C [12] was 93.2%. The viability, T/C [13] was 97.2%, the viability, T/C [14] was 111% and the viability, T/C [15] was 94.7%. It also gave a viability, T/C [16] of 92.2%, a viability, T/C [17] of 91.4% and a viability, T/C [18] of 79.8%. The viability, T/C [19] was 98.2%, the viability, T/C [20] was 86.6% and the viability, T/C [21] was 107%. It also gave a viability, T/C [22] of 88.2%, a viability, T/C [23] of 110% and a viability, T/C [24] of 95.1%. For the same compound, the viability, T/C [25] was 80.2%, the viability, T/C [26] was 116% and the viability, T/C [27] was 105%. It also gave a viability, T/C [28] of 124%, a viability, T/C [29] of 123% and a viability, T/C [30] of 90.6%. For the same compound, the viability, T/C [31] was 104%, the viability, T/C [32] was 103% and the viability, T/C [33] was 116%. For the same compound, the viability, T/C [34] was 92.3%, the viability, T/C [35] was 95.7% and the viability, T/C [36] was 97.6%.
Compound `COc1cc(C2c3cc4c(cc3C(OC3OC5COC(C)OC5C(O)C3O)C3COC(=O)C23)OCO4)cc(OC)c1O` (stereo unspecified) + Cc1cnc(CNC(=O)c2c(=O)c3ccc(N4CCCN(C)CC4)nc3n3c2sc2ccccc23)cn1 has an IC50 (second compound 0.0316 µM) of over 10 µM, an IC50 (second compound 0.1 µM) of over 10 µM and an IC50 (second compound 0.316 µM) of under 0.0316 µM. The IC50 (second compound 1 µM) was under 0.0316 µM, the IC50 (second compound 3.16 µM) was under 0.0316 µM and the IC50 (second compound 10 µM) was under 0.0316 µM. The viability, T/C [1] was 82.3%, the viability, T/C [2] was 60% and the viability, T/C [3] was 60.5%. The viability, T/C [4] was 74.5%, the viability, T/C [5] was 50.9% and the viability, T/C [6] was 49.9%. The viability, T/C [7] was 62.3%, the viability, T/C [8] was 59.1% and the viability, T/C [9] was 53.8%. The viability, T/C [10] was 63.6%, the viability, T/C [11] was 62.8% and the viability, T/C [12] was 39.9%. For the same compound, the viability, T/C [13] was 44.1%, the viability, T/C [14] was 53.2% and the viability, T/C [15] was 38.6%. It also gave a viability, T/C [16] of 49.7%, a viability, T/C [17] of 41.6% and a viability, T/C [18] of 34.3%. The viability, T/C [19] was 46.8%, the viability, T/C [20] was 39.9% and the viability, T/C [21] was 49.6%. The viability, T/C [22] was 36.1%, the viability, T/C [23] was 36% and the viability, T/C [24] was 43.4%. It also gave a viability, T/C [25] of 40.6%, a viability, T/C [26] of 47% and a viability, T/C [27] of 39.1%. For the same compound, the viability, T/C [28] was 46.6%, the viability, T/C [29] was 52.4% and the viability, T/C [30] was 48.2%. For the same compound, the viability, T/C [31] was 47.9%, the viability, T/C [32] was 50.3% and the viability, T/C [33] was 45.4%. For the same compound, the viability, T/C [34] was 38.2%, the viability, T/C [35] was 43.4% and the viability, T/C [36] was 41%.
`C#Cc1c(F)ccc2cc(O)cc(-c3ncc4c(N5CC6CCC(C5)N6)nc(OCC56CCCN5CC(F)C6)nc4c3F)c12` (stereo unspecified) + Cc1cnc(CNC(=O)c2c(=O)c3ccc(N4CCCN(C)CC4)nc3n3c2sc2ccccc23)cn1 showed an IC50 (second compound 0.0316 µM) of over 10 µM, an IC50 (second compound 0.1 µM) of over 10 µM and an IC50 (second compound 0.316 µM) of 0.0894 µM. The IC50 (second compound 1 µM) was under 0.0316 µM, the IC50 (second compound 3.16 µM) was under 0.0316 µM and the IC50 (second compound 10 µM) was under 0.0316 µM. The viability, T/C [1] was 75.3%, the viability, T/C [2] was 81.8% and the viability, T/C [3] was 74.4%. It also gave a viability, T/C [4] of 70%, a viability, T/C [5] of 86.9% and a viability, T/C [6] of 56.8%. It also gave a viability, T/C [7] of 64.3%, a viability, T/C [8] of 70.2% and a viability, T/C [9] of 56%. The viability, T/C [10] was 51.6%, the viability, T/C [11] was 54% and the viability, T/C [12] was 61.1%. For the same compound, the viability, T/C [13] was 61.9%, the viability, T/C [14] was 51.4% and the viability, T/C [15] was 42.5%. For the same compound, the viability, T/C [16] was 37%, the viability, T/C [17] was 41.2% and the viability, T/C [18] was 50.3%. The viability, T/C [19] was 42.1%, the viability, T/C [20] was 45.2% and the viability, T/C [21] was 38.4%. The viability, T/C [22] was 36.2%, the viability, T/C [23] was 50.2% and the viability, T/C [24] was 44.5%. For the same compound, the viability, T/C [25] was 46.6%, the viability, T/C [26] was 43.8% and the viability, T/C [27] was 42.2%. It also gave a viability, T/C [28] of 44.6%, a viability, T/C [29] of 45.9% and a viability, T/C [30] of 42.5%. The viability, T/C [31] was 40.5%, the viability, T/C [32] was 38.7% and the viability, T/C [33] was 39.3%. For the same compound, the viability, T/C [34] was 44.8%, the viability, T/C [35] was 40.3% and the viability, T/C [36] was 34.2%.
